Test results reported in patent US20260183277A1, “ANTIVIRAL PHARMACEUTICAL COMPOSITION COMPRISING ERRy INHIBITOR AS ACTIVE INGREDIENT” (priority 2024, published 2026).

Tested on: SARS-CoV-2 KCDC03
Format: cell-based

## CC(C)N1CCN(c2ccc(/C(=C(/CCCO)c3ccccc3)c3ccc(O)cc3)cc2)CC1 [DN200434]
  genome replication, progeny production, and protein synthesis of SARS-CoV-2: effectively suppressed
